Test results as given in patent US10124065B2, “Lipids and lipid compositions for the delivery of active agents” (Novartis AG, priority 2013, dated 2018).

Legend:
human leptin = assay: Mouse intravenous tail vein injection of modified synthetic leptin mRNA, human leptin ELISA; format: in vivo, C57BL/6 mouse; conditions: human leptin in mouse plasma, 10 μg leptin mRNA, 24 h
PLK-1 mRNA = assay: LS411N Xenograft Assay; format: in vivo, Nu/Nu mice; conditions: percent knock down of PLK-1 mRNA vs control in LS411N tumors, IV 3 mg/kg daily for three days
Description: Female Nu/Nu mice (6-8 weeks old) were implanted subcutaneously with 5×10^6 LS411N cells. Tumor growth was monitored by caliper measurement before treatment initiation. Mice bearing 150-250 mm^3 subcutaneous tumors were randomized and enrolled in the study. The stock siRNA formulations were diluted to […] with PBS for dosing. Animals enrolled in different groups received a single daily bolus IV injection of 3 mg/kg siRNA for three days. Tumors were harvested 24 hours post last injection to assess target gene regulation by qRT-PCR.
Lipid nanoparticles comprising lipid compounds of formula (I) and the PLK1-424 siRNA duplex sequence listed above were tested in the LS411N Xenograft Assay. The results of this assay are given in Table 5 below as a percent knock down of PLK-1 mRNA as compared to the control when administered as a single daily dose for three days at a dose of 3 mg/kg.

[1] = system: plasma Factor VII enzyme activity; assay: Mouse Factor VII dosing / Factor VII Activity Assay; format: in vivo; conditions: percent knock down of plasma Factor VII activity, CD-1 mice, 48 h; for KD FVII 0.3 mg/kg: single IV dose 0.3 mg/kg, LNP Chol/DSPC/PEG-DMG 45/44/9/2
Procedure, shortened: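 Female CD-1 mice (~25 g) received a single IV tail-vein dose of lipid-nanoparticle-formulated Factor VII siRNA (0.3 or 0.03 mg/kg). Plasma taken ~48 h later; FVII activity measured chromogenically against vehicle-control plasma standard curve, reported as % knockdown.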

[2] = pKa measurement of cationic lipid (TNS fluorescence); format: physicochemical; conditions: pKa of the cationic lipid of formula (I); Table 4; listed as Ex. 38
Procedure, shortened: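 Lipid (2 mM ethanol stock) mixed with TNS probe (0.3 mM stock) and diluted into twelve sodium phosphate/citric acid buffers of varying pH. TNS fluorescence read after background subtraction and normalized to the lowest-pH value. pKa taken as the pH at half-maximal normalized fluorescence on the smoothed curve, precise to about 0.1 units.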

SMILES	Leptin expression IV-C57BI/6, 24 h (human leptin) [ng/mL]	LS411 KD 3 × 3 mg/Kg (PLK-1 mRNA; LNP Chol/DSPC/S010 45/44/9/2) [%]	KD FVII 0.3 mg/kg [1] [%]	LS411 KD 3 × 3 mg/Kg (PLK-1 mRNA; LNP Chol/DSPC/PEG-DSG 45/44/9/2) [%]	KD FVII 0.03 mg/kg ([1]; single IV dose 0.03 mg/kg, LNP Chol/DSPC/S010 45/44/9/2) [%]	pKa [2]
CCCCCCCCCCOC(=O)CCCCCCCOc1cc(CN(C)C)cc(OCCCCCCCC(=O)OCCCCCCCCCC)c1 [Example 57, didecyl 8,8′-((5-((dimethylamino)methyl)-1,3-phenylene)bis(oxy))dioctanoate]	9.17	60	96.7			
CCCCC/C=C\C/C=C\CCCCCCCC(=O)OCCCCOc1cc(CN(C)C)cc(OCCCCOC(=O)CCCCCCC/C=C\C/C=C\CCCCC)c1 [Example 38, (9Z,9′Z,12Z,12′Z)-((5-((dimethylamino)methyl)-1,3-phenylene)bis(oxy))bis(butane-4,1-diyl)bis(octadeca-9,12-dienoate)]	17.21	60	99	58	43.6	5.9
